Measured values as given in patent publication US20210054323A1, “INNERVATED INTESTINE ON CHIP” (EMULATE, Inc., priority 2018, published 2021).

Key:
[1] = system: human iPS-derived sensory neurons (Nociceptors); test: Live calcium imaging (Fluo-4 AM) of Nociceptors on-chip after capsaicin irritation; assay type: cell-based; conditions: capsaicin 1 μM, sensory neurons in apical channel
Experimental: Irritation (as pain simulation) to sensory neurons on-chip was induced by capsaicin (1 μM in DMEM/F12 with 10% FBS, supplemented with BDNF, GDNF, NGF, NT-3 (25 ng/ml each) and Ascorbic Acid (200 μM)) in order to recapitulate the sensation of burning (heat) felt by humans exposed to capsaicin. Nociceptors responded to capsaicin, as shown by live imaging of calcium using Fluo-4 AM, see FIGS. 28C and 28D. Fluo-4 AM refers to a calcium sensitive fluorescent dye, loaded onto the sensory neurons. Intracellular calcium fluctuations were monitored over time using high-speed imaging. Acquisition protocols, for the example shown herein, consisted of 5-minute time-lapse sequences of Fluo-4 fluorescence. Alterations in fluorescence as a function of time were measured at a single wavelength (Fluo-4). Analysis and processing, as well as playback of the image sequences for visual inspection, was made using ImageJ/FIJI software. To visualize the spatial and temporal changes in, the raw sequences were processed to highlight changes in fluorescence intensity between frames. Regions of interest over the field of view were selected, and the mean pixel intensity at each frame was measured. The data was first plotted as fluorescence intensity versus and subsequently converted to a relative scale (ΔF/F baseline)

[2] = system: human iPS-derived sensory neurons (Nociceptors); test: Substance P release into apical channel effluent of Nociceptors-Chip; assay type: cell-based
Experimental: Chemical stimulation of Nociceptors with Capsaicin (e.g. 1 μM), perfused for 3 hours, was followed by effluent collected from the apical channel (neuronal). This Capsaicin treatment elicited the release of substance P, a pain neurotransmitter. […] This model was further developed, as described herein, successfully simulating the process of sensitization that leads to pathological pain by the addition of inflammatory mediators to endothelial media perfused through the vascular channel. As one example, 5 μM each of Prostaglandin E2, bradykinin, serotonin and histamine in Vascular Cell Basal Medium (ATCC® PCS-100-030™) with Microvascular Endothelial Cell Growth Kit-VEGF (ATCC® PCS-110-041™) was perfused through the vascular channel. In other words, this model is intended to simulate peripheral sensitization of Nociceptors. Capsaicin (200 nM) and inflammatory mediators (each 5 μM) were perfused for 3 hours, and the effluents were collected from the apical channel (neuronal). See, FIG. 30A for an exemplary schematic diagram. […] At the same time, inflammatory mediators, i.e. Prostaglandin E2, bradykinin, serotonin and histamine (each 5 μM in media), were added to the inlet of the basal channel. The effluent was collected from the outlet of the apical channel after 3 hours (t=3 h).

[3] = system: Human Dermal Microvascular Endothelial Cells (HMVEC-D); test: Vascular permeability, 3 kDa Dextran leakage from basal into apical channel of Nociceptors-Chip; assay type: cell-based; conditions: capsaicin 200 nM apical, simultaneously with inflammatory mediators (each 5 μM) basal, 3 hours
Experimental: In one embodiment, endothelial cells were seeded into the basal channel, e.g. Human Dermal Microvascular Endothelial Cells (HMVEC-D), i.e. Primary Dermal Microvascular Endothelial Cells; Normal, Human, Neonatal (HDMVECn) (e.g. ATCC® PCS-110-010™). However, it is not meant to limit the source of HMVEC, such that Primary Dermal Microvascular Endothelial Cells may be obtained from neonatal biopsies, e.g. foreskins. Prior to seeding, basal channels were coated with a thin rat collagen coating. Rat collagen was diluted in distillated water to obtain a final protein concentration at 150 μg/mL−1. The basal channel was coated by incubating the channel in collagen solution at 4° C. overnight. Unattached rat collagen was washed away with PBS, then culture medium was flowed in to cover the coated membrane to replace the PBS.
This model was further developed, as described herein, successfully simulating the process of sensitization that leads to pathological pain by the addition of inflammatory mediators to endothelial media perfused through the vascular channel. […]
Another readout is obtained by using Dextran (3 kDa) permeability, where Dextran is added to the basal channel then after 24 hours, effluent from the apical channel was collected for measuring the amount of Dextran that diffused through the endothelial barrier into the neuronal channel. […]

[4] = system: iPSC-derived human brain microvascular endothelial cells; test: Inflamed Brain-Chip: endothelial morphology (ZO-1) and Dextran leakage after TNF-α in vascular channel; assay type: cell-based
Experimental: In one embodiment to provide an innervated human brain chip having intact barrier function, induced pluripotent stem cells (iPSC)-derived cortical neurons, including populations of Glutamatergic neurons and GABAergic neurons, human primary astrocytes, and human primary pericytes were seeded into the neuronal channel (upper chamber), and iPSC-derived human brain microvascular endothelial cells in the vascular channel (lower chamber).
The vascular channel was directly stimulated the vascular channel at two concentrations of TNF-α.

astrocytes = test: Brain-Chip GFAP expression after TNF-α perfused into neuronal channel; assay type: cell-based, human; conditions: TNF-α 100 ng/ml perfused into neuronal channel; up to 24 hours after stimulation
Experimental: TNF-α (100 ng/ml) or vehicle was perfused into the neuronal channel.

endothelial cells = test: Real-time TEER measurement in BBB-chip; assay type: cell-based; conditions: BBB-chip under flow, after TNF-a challenge
Source text: TEER measures the resistance to pass current across one or more cell layers on a membrane. Specifically, this electrical resistance is a direct measurement of the resistance of the cell monolayer to the transport of ions. The measurement may be affected by the pore size and density of the membrane, but it aims to ascertain cell and/or tissue properties. The TEER value is considered a good measure of the integrity of a cell monolayer.
The barrier function of the same BBB-chip measured by flowing a fluorescent molecule on one side of the chip and measuring how much of the molecules crosses the endothelial cells, FIG. 23B (middle). The resolution of this measurement is limited by the time it takes for a sufficient sample to flow through the chip. A model of an exemplary TEER-Chip design FIG. 23C (right) utilizing electrodes oriented in a manner that allows electrical resistance of the cells on the membrane to be measured in real-time.

COc1cc(CNC(=O)CCCC/C=C/C(C)C)ccc1O [capsaicin, trans-8-methyl-N-vanillyl-6-nonenamide]
Nociceptor response by live imaging of calcium, change in fluorescence (ΔF/F) [1]: responded | Substance P released in the apical channel effluent ([2]; capsaicin 200 nM apical, with inflammatory mediators (Prostaglandin E2, bradykinin, serotonin, histamine, each 5 μM) basal, 3 hours): significant increase | Substance P released in the apical channel effluent ([2]; capsaicin 1 μM perfused through apical channel for 3 hours): significant increase | Vascular permeability (leakage of 3 kDa Dextran into the apical channel) [3]: significant increase

TNF-α
Percent leakage of Dextran into the apical channel (paracellular permeability) vs control ([4]; TNF-α 100 ng/ml and 1 ug/ml in vascular channel, 16 hours): significantly higher | Endothelial cell morphology (ZO-1 expression) ([4]; TNF-α in vascular channel for 16 hours, 100 ng/ml and 1 ug/ml): induces changes | GFAP expression (optical intensity of GFAP staining) (astrocytes): significantly increases | Barrier function by real-time TEER (endothelial cells): abrupt drop
